# Results taken from patent US11633392B2 (priority 2016, dated 2023).
# Tests used:
# human opioid δ receptor = biological target: T1, human opioid δ receptor (Homo sapiens, UniProt P41143); experiment: Opioid receptor function test (Lance Ultra cAMP Kit), δ receptor; type: cell-based
# T1 construct: host or cells: CHO cells
# Method: (§1) Opioid Receptor Function Test
# (§2) The functional activities of the compounds provided by the present invention on the μ, δ, and κ opioid receptors were investigated.
# (§3) The test was performed by using Lance Ultra cAMP Kit (PerkinElmer) according to a method predetermined for the kit. In the evaluation of the agonistic activity, CHO cells expressing each of the human opioid receptors (δ, μ, and κ, accession numbers and catalog numbers are mentioned below) and 10 μM of each test compound were reacted for 30 minutes in an assay buffer (1× HBSS, […], pH 7.4, […] (isobutylmethylxanthine), 7.5% BSA) in the presence of forskolin. Subsequently, the cAMP detection reagent included in the kit was added, and 1 hour afterward, time-resolved fluorescence measurement was performed by using the EnVision plate reader (PerkinElmer). The test compounds and the control drugs (δ: SNC80, μ: DAMGO, κ: U-69593) were evaluated in a concentration range of 10^−12 to 10^−5 M, a dose-response curve of each test compound was obtained from the fluorescence values at 665 nm, and EC50 value and the Emax value were calculated. The Emax value was calculated as a ratio of the maximum reaction of the test compound to the maximum reaction of each control drug, which is taken as 100%.
# (§4) • δ: Catalog No. CT4607, Accession No. NM_000911.2 • μ: Catalog No. CT4605, Accession No. NM_000914 • κ: Catalog No. CT4606, Accession No. NM_000912 (ChanTest Corporation)
# human opioid μ receptor = biological target: T2, human opioid μ receptor (Homo sapiens, UniProt P35372); experiment: Opioid receptor function test (Lance Ultra cAMP Kit), μ receptor; type: cell-based
# T2 construct: host or cells: CHO cells
# T2 sequence (P35372 whole entry): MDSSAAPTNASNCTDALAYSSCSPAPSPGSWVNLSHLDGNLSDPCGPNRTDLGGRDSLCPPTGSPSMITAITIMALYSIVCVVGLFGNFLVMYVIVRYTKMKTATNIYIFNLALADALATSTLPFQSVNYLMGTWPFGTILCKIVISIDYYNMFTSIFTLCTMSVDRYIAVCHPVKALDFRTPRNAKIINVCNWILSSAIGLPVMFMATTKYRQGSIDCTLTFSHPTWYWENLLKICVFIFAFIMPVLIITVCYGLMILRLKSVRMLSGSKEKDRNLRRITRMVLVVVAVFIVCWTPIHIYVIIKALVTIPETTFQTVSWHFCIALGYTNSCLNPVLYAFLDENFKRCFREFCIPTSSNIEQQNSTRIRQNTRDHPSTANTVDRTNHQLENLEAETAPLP
# Method: as §1, §2, §3, §4
# Wistar male rats = experiment: Rat elevated plus maze test; type: in vivo; details: oral, 3 mg/kg, 2 hours before test (FIG. 6)
# Method: Rat Elevated Plus Maze Test
# Anxiolytic effects of the compounds provided by the present invention were investigated by the rat elevated plus maze test.
# For the test, 7 to 9 weeks old Wistar male rats were used. […] Each test substance was dissolved in a 4.5% aqueous solution of cyclodextrin, and orally administered 2 hours before the start of the test. The test data were automatically analyzed by using video image action analysis software (Smart3.0, PanLab S.L., PanLab), and wall-less running route staying time ratio (%) was calculated.
# hERG potassium channel = biological target: T3, hERG potassium channel (Homo sapiens, UniProt Q12809); experiment: hERG potassium channel inhibition test (automatic patch clamp); type: cell-based; details: pH 7.4, hERG-expressing CHO cells, tail current, read-out: hERG channel inhibitory action
# T3 construct: host or cells: CHO cells
# T3 sequence (Q12809 whole entry): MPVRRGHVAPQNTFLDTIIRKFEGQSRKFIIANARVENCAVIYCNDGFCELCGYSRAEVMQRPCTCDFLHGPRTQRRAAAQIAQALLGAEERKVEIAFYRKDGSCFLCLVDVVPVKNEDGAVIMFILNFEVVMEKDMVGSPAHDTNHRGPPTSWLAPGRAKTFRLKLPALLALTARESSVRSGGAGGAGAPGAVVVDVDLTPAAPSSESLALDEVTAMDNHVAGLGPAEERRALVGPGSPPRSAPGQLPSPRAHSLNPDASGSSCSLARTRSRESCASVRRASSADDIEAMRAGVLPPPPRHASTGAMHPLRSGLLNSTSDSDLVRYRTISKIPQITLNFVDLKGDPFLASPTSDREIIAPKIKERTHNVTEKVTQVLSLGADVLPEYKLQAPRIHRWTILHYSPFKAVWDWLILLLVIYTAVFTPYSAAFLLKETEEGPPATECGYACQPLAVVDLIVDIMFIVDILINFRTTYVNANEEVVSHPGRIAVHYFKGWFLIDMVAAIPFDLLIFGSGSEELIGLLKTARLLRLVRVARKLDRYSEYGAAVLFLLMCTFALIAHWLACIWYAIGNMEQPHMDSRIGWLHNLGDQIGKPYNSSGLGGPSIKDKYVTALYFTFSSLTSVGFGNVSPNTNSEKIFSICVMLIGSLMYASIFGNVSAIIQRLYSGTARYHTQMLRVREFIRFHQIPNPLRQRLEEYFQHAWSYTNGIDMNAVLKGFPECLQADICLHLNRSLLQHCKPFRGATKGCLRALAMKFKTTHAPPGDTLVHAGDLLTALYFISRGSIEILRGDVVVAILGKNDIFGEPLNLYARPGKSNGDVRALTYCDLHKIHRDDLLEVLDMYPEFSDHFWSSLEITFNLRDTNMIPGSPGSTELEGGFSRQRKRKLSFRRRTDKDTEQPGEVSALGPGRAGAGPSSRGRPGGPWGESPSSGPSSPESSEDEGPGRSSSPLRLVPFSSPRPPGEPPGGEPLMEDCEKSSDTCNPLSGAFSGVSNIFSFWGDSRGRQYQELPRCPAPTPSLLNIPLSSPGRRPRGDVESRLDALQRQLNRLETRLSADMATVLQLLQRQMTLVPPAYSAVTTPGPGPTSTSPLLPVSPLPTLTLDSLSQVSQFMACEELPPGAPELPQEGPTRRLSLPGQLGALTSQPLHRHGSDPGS
# Method: hERG (Human Ether-A-Go-Go-Related Gene) Potassium Channel Inhibition Test
# The test was performed with Port-a-Patch automatic patch clump apparatus (Nanion Technologies) using hERG channel-stably expressing CHO cells (purchased from Channelopathy Foundation). The membrane potential of the cells was maintained at −80 mV, then there were applied a depolarization pulse at +20 mV for 1.5 seconds, and a following test pulse at −50 mV for 1.5 seconds at a frequency of 1 time per 10 seconds, and the hERG current was confirmed as a tail current induced by the test pulse. The test compound was dissolved in an extracellular fluid (137 mM NaCl, 4 mM KCl, 1.8 mM CaCl2, 1 mM MgCl2, 10 mM D(+)-glucose, 10 mM HEPES, pH 7.4), and the solution was refluxed at room temperature for 5 minutes. The inhibition ratio was obtained from the ratio of the tail current value observed after the compound was applied based on the tail current value observed before the compound was applied, which was taken as 100%.
# SD male rats = experiment: Rat cerebral infarction-induced overactive bladder model (cystometry); type: in vivo; details: for Pressure at the time of urination / Single urination amount / Static pressure / Urination interval: cumulative, Mean ± S.E. (n = 5)
# Method: Evaluation Using Rat Cerebral Infarction-Induced Overactive Bladder Model
# A transient middle cerebral artery occlusion model was prepared by using 8 weeks old SD male rats under isoflurane inhalation anesthesia. On the next day, the cervix was slightly cut open again under the isoflurane inhalation anesthesia, and a catheter for administration was fixed in the jugular vein, and led to the back. A cystometry operation was also performed, and the other end of a cannula inserted into the bladder was led to the back, and connected to a cannula swivel.
# On the day 4 after the cerebral ischemia operation, cystometry was performed under no anesthesia and with no restraint. Intravesical pressure was measured for the stable period, then a medium was intravenously administered, and the value of the pressure was measured over about 30 minutes as a value before test substance administration. Then, the test substance was cumulatively and intravenously administered from the lowest dose at intervals of about 30 minutes, and the value was measured for about 30 minutes after each administration. For the rats determined to show pollakiuria (urination interval was 10 minutes or shorter) in the measurement before the administration, static intravesical pressure, pressure at the time of urination, urination interval, and single urination amount were measured at each time point.
# Metabolic stability test = type: in vitro ADME; details: liver microsomes; human hepatic microsomes, 0 to 60 minutes; read-out: metabolic clearance CLint
# Method: Human hepatic microsomes and a test substance were reacted for a certain period of time (0 to 60 minutes). The test substance, which was not metabolized in the reaction sample, was measured, and remaining ratio was calculated. The test substance-remaining ratio at the time when the reaction time is 0 hour is taken as 100%. The remaining ratio after incubation was plotted against time as a log-linear plot to obtain a regression line (y=100 e^−kt, k=inclination of straight line: clearance rate constant), and metabolic clearance CLint (mL/min/kg) was calculated by using the following equation. CLint*=k(−min)×52.5(mg MS protein/g liver)×26(g liver/kg)/MS protein (mg MS protein/mL) • *: Davies, B. and Morris T., Physiological parameters in laboratory animals and humans, Pharm. Res., 10(7)1093-1095, 1993 (Test Results)
# T1 sequence (P41143 whole entry): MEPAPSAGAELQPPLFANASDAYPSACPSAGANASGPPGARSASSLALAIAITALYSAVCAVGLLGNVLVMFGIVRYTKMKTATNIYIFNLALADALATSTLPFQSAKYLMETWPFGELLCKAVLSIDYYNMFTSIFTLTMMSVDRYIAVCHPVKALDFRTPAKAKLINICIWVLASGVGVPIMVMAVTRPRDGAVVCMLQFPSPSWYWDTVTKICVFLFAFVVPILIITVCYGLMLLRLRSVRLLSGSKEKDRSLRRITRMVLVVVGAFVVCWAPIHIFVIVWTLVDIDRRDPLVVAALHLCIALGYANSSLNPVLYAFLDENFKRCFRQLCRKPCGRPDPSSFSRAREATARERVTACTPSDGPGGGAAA
compound,measurement,setting,value
"O=C(c1cccc(=O)[nH]1)N1C[C@H]2C[C@@]34CC[C@@H]1[C@@H]2[C@@]31CCN(CC2CC2)[C@@H]4Cc2ccc(O)cc21 [Example 7, 6-((1S,3aR,5aS,6R,11bR,11cS)-14-(cyclopropylmethyl)-10-hydroxy-2,3,3a,4,5,6,7,11c-octahydro-1H-6,11b-(epiminoethano)-1,5a-methanonaphtho[1,2-e]indole-3-carbonyl)pyridin-2(1H)-one]",EC50,"human opioid δ receptor; CHO cells expressing human δ receptor, cAMP, in the presence of forskolin",< 3 nM
same,Emax,human opioid δ receptor; ratio to maximum reaction of control drug SNC80 taken as 100%,99%
same,EC50,"human opioid μ receptor; CHO cells expressing human μ receptor, cAMP, in the presence of forskolin, read-out: μ receptor EC50 value",> 1 nM
same,Emax,human opioid μ receptor; ratio to maximum reaction of control drug DAMGO taken as 100%,10%
same,wall-less running route staying time ratio,Wistar male rats,significantly increased
same,"inhibition at 5 min, 10 µM",hERG potassium channel,< 50%
same,Pressure at the time of urination,SD male rats; 0.01 mg/kg intravenous,42.9 ± 10.7 mmHg
same,Single urination amount,SD male rats; 0.01 mg/kg intravenous,0.310 ± 0.068 g
same,Static pressure,SD male rats; 0.01 mg/kg intravenous,9.5 ± 1.3 mmHg
same,Urination interval,SD male rats; 0.01 mg/kg intravenous,450.7 ± 76.9 s
same,Pressure at the time of urination,SD male rats; 0.1 mg/kg intravenous,42.8 ± 9.7 mmHg
same,Single urination amount,SD male rats; 0.1 mg/kg intravenous,0.403 ± 0.129 g
same,Static pressure,SD male rats; 0.1 mg/kg intravenous,9.6 ± 1.1 mmHg
same,Urination interval,SD male rats; 0.1 mg/kg intravenous,547.4 ± 122.5 s
same,effect on single urination amount (in words),SD male rats; 0.01 and 0.1 mg/kg intravenous,dose-dependently increasing tendency
same,effect on urination interval (in words),SD male rats; 0.01 and 0.1 mg/kg intravenous,dose-dependently increasing tendency
same,effect on pressure at the time of urination (in words),SD male rats; all the doses,did not affect
same,effect on static intravesical pressure (in words),SD male rats; all the doses,did not affect
same,CLint scaled,Metabolic stability test,5.6 mL/min/kg
